Results published in patent US5369016A, “Peptide amidase and the use thereof” (Forschungszentrum Juelich GmbH, priority 1990, dated 1994).
One block for each molecule: values may come before it. Square brackets hold non-standard residues; d marks the D form. Peptide text beside a SMILES is read from it. * marks the point of attachment. Cbz = O=C(OCc1ccccc1)*

What was measured:
peptide amidase [1] = assay: Continuous deamidation of H-Tyr-Arg-NH2 in an enzyme membrane reactor (EMR); type: biochemical, orange; conditions: 20 mM substrate, residence time 30 minute, enzyme 0.15 mg/ml
Description: A continuous process for deamidation of H-Tyr-Arg-NH2 was carried out in an EMR. The conditions for operating the EMR (corresponding to a continuously operated stirred vessel reactor) permitted a more economic utilization of the enzyme because the enzyme was removed by ultrafiltration before the product was purified. The process was carried out under the following conditions: […]

peptide amidase [2] = assay: Effect of organic solvents on enzyme stability; type: biochemical, orange; conditions: 27.8% solvent, 30° C.; acetone, acetonitrile, DMF, ethanol compared
Description: Ten identical mixtures of the following composition:
50 μl of enzyme solution (40 μg of protein/mixture)
were incubated at 30° C. At various times, the reaction was initiated by the addition of substrate (Z-Gly-Tyr-NH2 in 100 μl of buffer/solvent 1:1, corresponding to 10 mM/mixture) and the activity was measured.

[3] = test system: peptide amidase purified from orange flavedo; assay: Cleavage of peptide amides with free N termini and of side chain amides; type: biochemical; conditions: amides of amino acid side chains (Asn; Gln); amino acid analyzer; 10000 µM
Description: Enzyme activity measured for the deamidation of dipeptide amides with free N termini (e.g. H-Tyr-Arg-NH2) was considerably higher than for peptide amides with an aromatic protective group, such as Z- or Bz-. Activity levels were up to 100 times higher than those measured with protected peptide amides.
Amides of amino acid side chains (Asn; Gln) Analysis
Eluent (HPLC): TBA/acetonitrile 95/5 or 96/4(*)
Reaction conditions: 10 mM substrate; 50 μg/ml peptide amidase; 50 mM
tris/HCl; pH 7.0; temperature 30° C.

peptide amidase [4] = assay: Deamidation of tripeptides containing D-amino acids (stereospecificity); type: biochemical, orange; conditions: 12 h
Description: Column: RP 18, 0.1 ml/min
Eluent: Solution of TBA (tetrabutylammonium hydrogen sulfate) and […]

peptide amidase [5] = assay: Enzymatic cleavage of N-terminal protected dipeptide amides; type: biochemical, orange; conditions: peptide amidase
Excerpt: The results in Table 7 were obtained using an eluent: TBA/acetonitrile 60/40 (% volume)

peptide amidase [6] = assay: Enzymatic reaction of peptide amides with a chain length of greater than three amino acids; type: biochemical, orange; conditions: peptide amidase, 6 h, 10000 µM, pH 7
Description: Enzymatic reaction of peptide amides with a chain length of greater than
three amino acids. Reaction conditions: 10 mM substrate, 40 μg/ml
50 mM tris/HCL, pH 7.0, temp. 30° C.

[7] = Comparison of the activity of peptide amidase and CPD-Y (pH-stat); type: biochemical; conditions: for Amino-acid amidase activity (percent) / Amino-acid amidase activity (yes/no): strength varies depending on the amide of the amino acid
Description: The enzyme has neither peptidase activity nor amino acid amidase activity, as is evident from the results presented in Table 1 comparing the activities of a purified peptide amidase to carboxypeptidase Y in both its native and modified form.
Comparison of the activity of peptide amidase and CPD-Y;
Conditions for the determination of peptide amidase activity:
30 mM of different substrates, pH 9, 22° C., pH-stat
For the purposes of this disclosure, specific activity is defined as follows: 1 U/mg of enzyme can convert 1 μmol of substrate per minute.

Molecule: N=C(N)NCCC[C@H](NC(=O)[C@@H](N)Cc1ccc(O)cc1)C(N)=O [Tyr--Arg--NH2, H-Tyr-Arg-NH2]
- Mean conversion (peptide amidase [1]): 92%

Molecule: CN(C)C=O [DMF, dimethylformamide]
- decrease in enzyme activity on incubation with solvent (in words) (peptide amidase [2]): smallest decrease in enzyme activity

Molecule: H--Ala--Gln
- Conversion [3]: 0%

Molecule: NCC(=O)N[C@H](Cc1ccccc1)C(=O)N[C@@H](Cc1ccc(O)cc1)C(N)=O [H--Gly--D-Phe--Tyr--NH2] (H-Gly-[dF]-Tyr-NH2)
- Conversion (peptide amidase [4]): 100 %/12 hours

Molecule: H--Ala--Asn
- Conversion [3]: 0%

Molecule: NCC(=O)N[C@@H](Cc1ccccc1)C(=O)N[C@H](Cc1ccccc1)C(N)=O [H--Gly--Phe--D-Phe--NH2] (H-Gly-Phe-[dF]-NH2)
- Conversion (peptide amidase [4]): 0 %/12 hours

- Yield (peptide amidase [5]): 90%
- Yield (peptide amidase [6]): 100 %/6 h
Molecule: CC(C)C[C@H](NC(=O)[C@@H]1CCCN1C(=O)OCc1ccccc1)C(=O)NCC(N)=O [Z--Pro--Leu--Gly--NH2] (Cbz-Pro-Leu-Gly-NH2)

Molecule: C[C@@H](NC(=O)[C@@H]1CCCN1C(=O)[C@@H](N)CCCNC(=N)N)C(N)=O [H--Arg--Pro--D-Ala--NH2] (H-Arg-Pro-[dA]-NH2)
- Conversion (peptide amidase [4]): 0 %/12 hours

- Yield (peptide amidase [5]): 100%
- Yield (peptide amidase [6]): 100 %/6 h
Molecule: CC(C)C[C@H](NC(=O)CNC(=O)CNC(=O)OCc1ccccc1)C(N)=O [Z--Gly--Gly--Leu--NH2] (Cbz-Gly-Gly-Leu-NH2)

Molecule: H--Leu--Arg--Asn
- Conversion [3]: 0%

B1: Carboxypeptidase Y [CPD-Y (native)] (protein, UniProt P00729 112-532, looked up)
Carboxypeptidase Y: KIKDPKILGIDPNVTQYTGYLDVEDEDKHFFFWTFESRNDPAKDPVILWLNGGPGCSSLTGLFFELGPSSIGPDLKPIGNPYSWNSNATVIFLDQPVNVGFSYSGSSGVSNTVAAGKDVYNFLELFFDQFPEYVNKGQDFHIAGESYAGHYIPVFASEILSHKDRNFNLTSVLIGNGLTDPLTQYNYYEPMACGEGGEPSVLPSEECSAMEDSLERCLGLIESCYDSQSVWSCVPATIYCNNAQLAPYQRTGRNVYDIRKDCEGGNLCYPTLQDIDDYLNQDYVKEAVGAEVDHYESCNFDINRNFLFAGDWMKPYHTAVTDLLNQDLPILVYAGDKDFICNWLGNKAWTDVLPWKYDEEFASQKVRNWTASITDEVAGEVKSYKHFTYLRVFNGGHMVPFDVPENALSMVNEWIHGGFSL
- Peptidase activity [7]: yes
- Specific activity ([7]; 30 mM of different substrates, pH 9, 22° C., pH-stat): 0.0082 U/mg protein
- Amino-acid amidase activity (percent) [7]: 0-92%
- Amino-acid amidase activity (yes/no) [7]: yes

B2: Carboxypeptidase Y [CPD-Y (modified)] (protein, UniProt P00729 112-532, looked up)
Carboxypeptidase Y: KIKDPKILGIDPNVTQYTGYLDVEDEDKHFFFWTFESRNDPAKDPVILWLNGGPGCSSLTGLFFELGPSSIGPDLKPIGNPYSWNSNATVIFLDQPVNVGFSYSGSSGVSNTVAAGKDVYNFLELFFDQFPEYVNKGQDFHIAGESYAGHYIPVFASEILSHKDRNFNLTSVLIGNGLTDPLTQYNYYEPMACGEGGEPSVLPSEECSAMEDSLERCLGLIESCYDSQSVWSCVPATIYCNNAQLAPYQRTGRNVYDIRKDCEGGNLCYPTLQDIDDYLNQDYVKEAVGAEVDHYESCNFDINRNFLFAGDWMKPYHTAVTDLLNQDLPILVYAGDKDFICNWLGNKAWTDVLPWKYDEEFASQKVRNWTASITDEVAGEVKSYKHFTYLRVFNGGHMVPFDVPENALSMVNEWIHGGFSL
modifications: chemically modified
notes: carboxypeptidase Y in a chemically modified form
- Amino-acid amidase activity (percent) [7]: 0-77%
- Amino-acid amidase activity (yes/no) [7]: yes
